The source of these data is PubChem BioAssay (NCI).

SMILES strings stand for the structures. Several values for one entry are separate records, joined by “and”; a condition that tells them apart may be missing. Equal values may be shown once.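 Interpolation was linear, between the two tested concentrations surrounding the appropriate level; five concentrations were tested over 48 hours in 96-well plates. Abbreviation: GI50, concentration required for 50% inhibition of growth. At the TGI there is no net growth.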

Common to all, as to experiment: NCI-60 cell line screen, 48 h
Assay [1] has as its system SNB-78 CNS.
Assay [2] has as its system LXFL 529 NSCLC.
The subject of assay [3] is KM20L2 colon.
The test system of assay [4] is RXF-631 renal.
In assay [5] the test system is NCI/ADR-RES ovarian.
The test system of assay [6] is MDA-N.
For assay [7], the system named is MDA-MB-231 breast.
The subject of assay [8] is DU-145 prostate.
The subject of assay [9] is BT-549 breast.

Turning to `CCCCCCCCCCCCCCCCCCCCCC(=O)Nc1ccn(C2OC(CO)C(O)C2O)c(=O)n1` (stereo unspecified), the TGI in [1], in assay [2] and in assay [3] was over 100 µM each time.
Turning to `COc1ccc(C(C#N)NNc2nc(C)cc(=O)[nH]2)cc1OC` (stereo unspecified), the TGI in assay [1], in assay [2] and in [3] was over 100 µM each time.
On to `CSc1nc2c(nc(N)n2C2OCC(O)C(O)C2O)c(=O)n1C` (stereo unspecified), for which the TGI in assay [1], in assay [2], in assay [3] and in assay [4] was over 100 µM each time.
With `Cn1nc(-c2ccccc2)c(C(=O)/C=C/c2ccccc2)c(N2CCOCC2)c1=O`, the TGI came to 34 µM in [2] and 42.9 µM in [3].
As to `CC12CCC(=O)C=C1CCC1C2C(O)CC2(C)C(c3csc(N)n3)CCC12` (stereo unspecified), the TGI in [5], in assay [6], in [7], in [8] and in [9] was over 100 µM throughout.
On to `CC(=O)n1c2ccccc2c2nc3nc(Oc4ccc(C)cc4)c4ccccc4c3cc21`, for which the TGI in assay [1], in [2] and in [3] was over 100 µM throughout.
With `CN(C)CCCN1CCc2c([nH]c3ccccc23)C1c1cccnc1` (stereo unspecified), the TGI in assay [1], in [2], in assay [3] and in [4] was over 100 µM in each case.
As for `CC1C(=O)C(C)C(c2ccccc2)N(N=O)C1c1ccccc1` (stereo unspecified), the TGI in [5] was 867 µM; in assay [1], over 766 µM; in assay [6] it was 306 µM; in assay [2], over 1000 µM; in assay [3], over 1000 µM; in [7], 250 µM. In assay [8], the TGI was determined as 567 µM. In addition, the GI50 in assay [1] was 220 µM.
Regarding `CCOC(=O)C(=O)Nc1c(C)cccc1C`, the TGI in assay [1], in assay [2] and in [3] was over 100 µM throughout.
Turning to `COc1nc2nccc-2c2occn12`, the TGI in assay [1], in [2], in [3] and in assay [4] was over 100 µM in each case.
For the molecule `O=C(CSC(=S)N1CCOCC1)Nc1nc2c(s1)CCCC2`, the TGI in assay [1], in [2] and in [3] was over 100 µM each time.
Take `NC(=O)N1N=C2c3ccccc3SC[C@H]2[C@@H]1c1ccccc1`: the TGI in [1] turned out to be 93.3 µM; in assay [2], 94.2 µM; in assay [3] it was 39.8 µM.
For `CC(=O)c1cc([N+](=O)[O-])ccc1OCC(=O)O`, the TGI in assay [1], in [2], in assay [3] and in [4] was over 100 µM in each case.
`COc1cc(/C=C/C(=O)c2sc(Nc3ccccc3)nc2C)ccc1O`: the TGI in assay [1] and in assay [3] was over 100 µM throughout.
Consider `CC(C)C1CC(O)O[C@@H]([C@@H](C)[C@H]2CC(=O)[C@@H]3[C@@H]4[C@@H](O)[C@H](O)[C@H]5[C@@H](O)[C@H](O)CC[C@]5(C)[C@H]4CC[C@]23C)C1` (stereo partly specified), for which the TGI in assay [1], in assay [2] and in assay [3] was over 100 µM each time.
Turning to `O=C1C2=C(c3ccccc31)C(c1ccccc1)NC(=S)N2` (stereo unspecified), the TGI in assay [2], in assay [3] and in assay [4] was over 100 µM in each case.
Turning to `COC(=O)c1csc(-c2nc(CCNC(=O)OC(C)(C)C)sc2Br)n1`, the TGI in assay [5], in assay [6], in assay [8] and in assay [9] was over 100 µM throughout.
`N#CC(C(=O)C(=O)NCCCNC(=O)C(=O)C(C#N)c1ccccc1)c1ccccc1` (stereo unspecified): the TGI in assay [1], in assay [2] and in assay [3] was over 100 µM throughout.
For `CC/C=C\C/C=C\C/C=C\CCCCCCCC(=O)OCC`, the TGI in assay [2] and in assay [3] was over 100 µM in each case.
For the molecule `CC1=C(O)C(=O)C2C(=O)C1C(C)C2c1ccc(Cl)cc1` (stereo unspecified), the TGI in [1], in assay [2] and in assay [4] was over 100 µM throughout.
With `COc1cc(CNc2ccc(C(C)C)cc2)cc(OC)c1OC`, the TGI was over 100 µM in assay [1], 48.7 µM in assay [2] and 38.8 µM in assay [3].
Consider `Nc1nc2c(c(=O)[nH]1)CN(c1ccc(S(N)(=O)=O)cc1)CN2`, for which the TGI in assay [5], in [6], in assay [7], in assay [8] and in [9] was over 100 µM throughout.
`CCOc1ccc(NCc2cc(OC)c(OC)c(OC)c2)cc1`: the GI50 in assay [5] is 0.569 µM; in [6], 0.565 µM and 0.446 µM; in assay [2] it was 0.839 µM and 2.67 µM. The TGI in [5] was over 100 µM; in assay [1], over 100 µM; in assay [6], over 100 µM; in [2] it was over 100 µM; in assay [3] it was 1.79 µM and 3.09 µM; in assay [7] it was over 100 µM. The TGI in assay [8] and in assay [9] was over 100 µM in each case.
As for `NNC(=O)CCC(=O)NC1C2CC3CC(C2)CC1C3` (stereo unspecified), the TGI in assay [1], in [2] and in [3] was over 100 µM each time.
Consider `COc1cc([C@@H]2c3cc4c(cc3[C@@H](NC(=O)c3ccccc3)C3COC(=O)[C@@H]32)OCO4)cc(OC)c1O` (stereo partly specified), for which the values for the TGI in assay [1], in assay [2] and in assay [3] were over 100 µM, over 100 µM and 12.8 µM, respectively.
Turning to `CC1S(=O)(=O)OCCOS1(=O)=O`, the TGI in assay [1], in [2], in [3] and in assay [4] was over 100 µM each time.
In the case of `COC(=O)C1C2C=CC(C2)N1[C@@H](C)c1ccccc1` (stereo partly specified), the TGI in assay [1], in assay [2] and in assay [3] was over 100 µM each time.
With `C=C(C)C(=O)O[C@H]1[C@H]2[C@H](OC(=O)[C@H]2C)[C@H](O)[C@@H](C)[C@@H]2C=CC(=O)[C@]21C`, the TGI in assay [5] was 9.61 µM; in assay [6], 7.68 µM; in [7], 14 µM; in [8], 12.9 µM; in assay [9] it was 15.5 µM.
